This note sets out measurements from ChEMBL document CHEMBL5518187, “EGCG-like non-competitive inhibitor of DYRK1A rescues cognitive defect in a down syndrome model” (Eur J Med Chem, 2024).

In data set [1] the target is Dual specificity tyrosine-phosphorylation-regulated kinase 1A (Homo sapiens, UniProt Q13627). Kind of data set: Inhibition of DYRK1A (unknown origin) using KISGRLSPIMTEQ as substrate incubated for 30 mins in presence of ATP by UFLC-based fluorimetric analysis.
Data set [2] concerns the target Mitogen-activated protein kinase 1 (Homo sapiens) (UniProt P28482). Kind of data set: Inhibition of ERK2 (unknown origin) at 0.5 uM.
The species named for data set [3] is Homo sapiens. The data set is described as follows: Inhibition of PI3K (unknown origin) at 0.5 uM.
The target of data set [4] is Glycogen synthase kinase-3 beta (Homo sapiens) (UniProt P49841). Kind of data set: Inhibition of GSK3beta (unknown origin) at 0.5 uM.
Chain of Glycogen synthase kinase-3 beta (Homo sapiens) (P49841 whole entry, looked up): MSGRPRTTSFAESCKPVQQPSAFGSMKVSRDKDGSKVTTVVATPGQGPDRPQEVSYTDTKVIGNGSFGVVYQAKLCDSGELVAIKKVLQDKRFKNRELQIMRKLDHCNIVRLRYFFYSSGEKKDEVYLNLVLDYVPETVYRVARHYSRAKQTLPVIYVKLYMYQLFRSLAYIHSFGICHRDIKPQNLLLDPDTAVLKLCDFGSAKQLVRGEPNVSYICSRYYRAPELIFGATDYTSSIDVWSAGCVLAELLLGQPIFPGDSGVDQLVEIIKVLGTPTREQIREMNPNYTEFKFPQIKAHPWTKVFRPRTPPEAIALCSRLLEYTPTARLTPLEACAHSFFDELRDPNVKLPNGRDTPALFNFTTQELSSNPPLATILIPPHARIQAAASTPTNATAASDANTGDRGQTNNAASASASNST
Data set [5] deals with Mitogen-activated protein kinase 3 (Homo sapiens) (UniProt P27361). The data set is described as follows: Inhibition of ERK1 (unknown origin) at 0.5 uM.
Chain of Mitogen-activated protein kinase 3 (Homo sapiens) (P27361 whole entry): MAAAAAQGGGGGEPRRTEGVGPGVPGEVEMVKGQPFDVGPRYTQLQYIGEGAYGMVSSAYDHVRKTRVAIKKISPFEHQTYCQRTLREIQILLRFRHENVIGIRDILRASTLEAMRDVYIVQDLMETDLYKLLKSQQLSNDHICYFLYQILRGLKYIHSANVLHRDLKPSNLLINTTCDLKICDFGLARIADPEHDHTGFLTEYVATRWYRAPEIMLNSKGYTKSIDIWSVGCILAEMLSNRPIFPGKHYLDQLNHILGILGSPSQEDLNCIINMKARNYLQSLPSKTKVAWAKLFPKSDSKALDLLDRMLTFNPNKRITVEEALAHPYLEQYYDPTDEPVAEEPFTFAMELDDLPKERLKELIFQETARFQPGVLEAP
Data set [6] concerns Mus musculus. Kind of data set: Effect on spatial working memory in Dp1Yey C57BL/6J mouse model assessed as reduction in total distance travelled at 40 mg/kg, po administered 5 days per week for 2 months by Y-maze test. The format is functional, organism-based.
Data set [7] deals with Mus musculus. The data set is described as follows: Cognitive enhancing effect in Dp1Yey C57BL/6J mouse model assessed as increase in percentage of spontaneous alternation at 40 mg/kg, po administered 5 days per week for 2 months by Y-maze test. The format is functional, organism-based.
Data set [8] relates to Mus musculus. The data set is described as follows: Effect on spatial working memory in Dp1Yey C57BL/6J mouse model assessed as reduction in time spent in center at 40 mg/kg, po administered 5 days per week for 2 months by Y-maze test. The format is functional, organism-based.
Data set [9] is described as follows: Drug concentration in wildtype mouse brain at 50 mg/kg by UHPLC-MS/MS analysis. The format is ADME, organism-based. The note with it: in vivo, read-out: Ct.
The subject of data set [10] is Mus musculus. Kind of data set: In vivo inhibition of DYRK1A in C57BL/6J mouse model carrying murine BACtgDyrk1a assessed as decrease in phosphorylated ERK to ERK ratio in brain administered intraperitoneally and measured after 24 hrs. The format is functional. The note with it: route ip.
The nature of data set [11]: Drug concentration in brain of Dp1Yey C57BL/6J mouse model at 50 mg/kg by UHPLC-MS/MS analysis. The format is ADME, organism-based. The settings on record: in vivo, read-out: Ct.
The subject of data set [12] is Mus musculus. The data set is described as follows: Effect on spatial working memory in Dp1Yey C57BL/6J mouse model assessed as reduction in mean speed at 40 mg/kg, po administered 5 days per week for 2 months by Y-maze test. The format is functional, organism-based.
In data set [13] the target is Tyrosine-protein kinase Fyn (Homo sapiens) (UniProt P06241). Kind of data set: Inhibition of FYN (unknown origin) at 0.5 uM.
Chain of Tyrosine-protein kinase Fyn (Homo sapiens) (P06241 2-537 limits assumed): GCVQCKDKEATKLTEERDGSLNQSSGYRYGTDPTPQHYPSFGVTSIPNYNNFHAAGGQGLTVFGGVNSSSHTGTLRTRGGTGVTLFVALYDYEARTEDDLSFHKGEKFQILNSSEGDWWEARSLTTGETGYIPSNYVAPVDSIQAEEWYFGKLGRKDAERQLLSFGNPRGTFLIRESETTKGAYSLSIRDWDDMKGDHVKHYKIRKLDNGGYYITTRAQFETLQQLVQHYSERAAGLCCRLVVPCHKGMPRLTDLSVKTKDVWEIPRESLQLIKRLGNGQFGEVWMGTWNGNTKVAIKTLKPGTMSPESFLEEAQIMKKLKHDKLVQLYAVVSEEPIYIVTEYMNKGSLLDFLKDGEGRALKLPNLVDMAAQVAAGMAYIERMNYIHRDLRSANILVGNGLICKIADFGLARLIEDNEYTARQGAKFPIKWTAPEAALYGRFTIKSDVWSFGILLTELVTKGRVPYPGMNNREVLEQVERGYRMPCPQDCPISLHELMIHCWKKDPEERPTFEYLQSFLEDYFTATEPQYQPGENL
A short description of data set [14]: Stability in human plasma at 1 uM incubated for 120 mins by LC-MS/MS analysis. The format is ADME, cell-free. The note with it: 2 h.
In data set [15] the target is Dual specificity tyrosine-phosphorylation-regulated kinase 1A (Rattus norvegicus, UniProt Q63470). The data set is described as follows: Inhibition of recombinant 6His-tagged rat DYRK1A (1 to 502 residues) expressed in Escherichia coli BL21 (DE3) cells using KISGRLSPIMTEQ as substrate incubated for 30 mins in presence of ATP by absorbance based assay.

Active and inactive are the calls of the source. The rule behind the calls is not given here.

Chain of Mitogen-activated protein kinase 1 (Homo sapiens) (P28482 whole entry): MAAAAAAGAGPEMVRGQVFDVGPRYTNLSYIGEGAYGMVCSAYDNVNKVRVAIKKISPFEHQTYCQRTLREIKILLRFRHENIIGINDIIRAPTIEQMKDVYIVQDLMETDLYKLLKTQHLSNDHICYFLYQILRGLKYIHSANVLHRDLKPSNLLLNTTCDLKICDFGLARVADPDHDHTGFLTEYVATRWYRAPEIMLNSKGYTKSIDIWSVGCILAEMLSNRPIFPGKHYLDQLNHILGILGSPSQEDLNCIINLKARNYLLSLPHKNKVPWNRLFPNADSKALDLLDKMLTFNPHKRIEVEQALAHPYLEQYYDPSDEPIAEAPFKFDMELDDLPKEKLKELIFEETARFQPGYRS

As for `COc1cc2c(c(OC)c1)CNC(C1CCCCC1)C2` (stereo not given), the IC50 in data set [1] is above 20 µM.

Take `O=C(c1cc(O)c(O)c(O)c1)N1Cc2c(O)cc(O)cc2CC1c1cc(O)c(O)c(O)c1` (stereo not given): the inhibition result in [2], in data set [4] and in data set [5] was “inactive” in each case. The inhibition result in data set [3], in [10] and in data set [13] was “Active” each time. The outcome in data set [6], in data set [8] and in [12] was inactive. In addition, in data set [7], the result was Active. The concentration in data set [9] stood at 38.2 nM; in data set [11] it was 27.6 nM. For the same compound, the Stability result in [14] is listed as “Stable”.

Regarding `COc1ccc(C(=O)N2Cc3c(cc(OC)cc3OC)CC2C2CCCCC2)cc1` (stereo not given), the IC50 in data set [1] is above 20 µM.

Regarding `O=C(O[C@@H]1Cc2c(O)cc(O)cc2O[C@@H]1c1cc(O)c(O)c(O)c1)c1cc(O)c(O)c(O)c1` [EPIGALOCATECHIN GALLATE], the IC50 in data set [1] worked out at 0.2 µM.

With `COc1cc2c(c(OC)c1)CN(C(=O)c1ccccc1)C(c1cc(OC)c(OC)c(OC)c1)C2` (stereo not given), the IC50 in data set [1] is above 20 µM.

Regarding `O=C(c1ccccc1)N1Cc2c(O)cc(O)cc2CC1C1CCCCC1` (stereo not given), in [1], the IC50 was above 20 µM.

Consider `COc1cc2c(c(OC)c1)CN(C(=O)c1ccccc1)C(C1CCCCC1)C2` (stereo not given), for which the IC50 in data set [1] is above 20 µM.

Turning to `O=C(c1ccc(O)cc1)N1Cc2c(O)cc(O)cc2CC1C1CCCCC1` (stereo not given), the IC50 in data set [1] is above 20 µM.

Turning to `Oc1cc(O)c2c(c1)CC(c1ccccc1)NC2` (stereo not given), in data set [1], the IC50 was above 20 µM.

For `COc1cc2c(c(OC)c1)CNC(c1ccccc1)C2` (stereo not given), the IC50 in [1] is above 20 µM.

Regarding `COc1cccc(C(=O)N2Cc3c(cc(OC)cc3OC)CC2c2cc(OC)c(OC)c(OC)c2)c1` (stereo not given), in data set [1], the IC50 is above 20 µM.

Consider `Oc1ccc(-c2cnc3[nH]cc(-c4ccc(F)cc4)c3c2)cc1O`, for which, in data set [15], the 50% inhibitory concentration (IC50) stood at 0.02 µM.

Take `Oc1cc(O)c2c(c1)CC(C1CCCCC1)NC2` (stereo not given): in data set [1], the IC50 is above 20 µM.

In general, IC50 refers to the point on the concentration scale where inhibition reaches its midpoint.
